Assay results published in patent publication US20140348807A1, “PROCESS FOR THE PREPARATION OF A BIOMASS COMPRISING PLANTARICIN AND USES THEREOF IN MEDICAL FIELD” (GIULIANI S.p.A., priority 2010, published 2014).
Like-named read-outs stand apart in the source and are kept apart here. Ends that are not written are not given here.

How the values were obtained:
[1] = test system: Cultured human keratinocytes; assay: Wound healing assay on cultured human keratinocyte monolayer (Example 2); format: cell-based; settings: 1 hour incubation with stimulus (Plantaricin A 2.5 μg/ml), then 24 hours
Procedure: Cultured human keratinocytes have been incubated with Plantaricin A (2.5 μg/ml) or Plantaricin A containing biomass for 1 hour.
At the end of the incubation, the cells have been washed and culture medium restored.
The test consists of carrying out a mechanical interruption in the continuity of the cellular monolayer in order the treatment effect in favouring or not the keratinocyte ability to migrate beyond the damage border and therefore “heal the lesion” to be evaluated.
To this end the keratinocyte monolayer, treated as above described, was incubated over aditional 24 hours after stimulus application and then fixed and stained using ematoxylin/eosin staining. Images have been observed with light microscope using 5× objective.
For each image maximum cell migration limits and distance or gap there between have been detected and calculated, respectively (FIG. 9-10).

Caco-2/TC7 cells [2] = assay: Caco-2/TC7 cell viability, Neutral Red absorption assay; format: cell-based, Human; settings: for viability of Caco-2/TC7 cells (Neutral Red) vs DMEM negative control: 2.5 μg/ml, incubation 24-72 hours; for negative effect of IFN-γ on Caco-2/TC7 viability under simultaneous plantaricin A treatment: IFN-γ 1000 U/ml + plantaricin A 2.5 μg/ml
Procedure: Human Caco-2/TC7 cells (TC7 clone) have been cultured in Dulbecco medium (DMEM), added with calf serum (10%), not essential amino acids (1%), gentamycin/streptomycin (50 μg/ml), glutamine (2 mM) and 4-2-hydroxyethyl-1-piperazinil-etansulfonic acid (1%) (Di Cagno et al., 2010. Quorum sensing in sourdough Lactobacillus plantarum DC400: induction of plantaricin A (PlnA) under co-cultivation with other lactic acid bacteria and effect of PlnA on bacterial and Caco-2 cells. Proteomics in press). Cell viability has been determined with absorption assay using Neutral Red dye (Balls et al., 1987. Approaches to validation alternative methods in toxicology. In: Goldber A. M. (Ed). N.Y. Academic Press pp. 45-58). After 24-72 hour treatment with various preparations, cells have been washed with PBS buffer and incubated for 4 hours at 37° C. with a Neutral Red solution (33 mg/I). Successively, the cells have been again washed with PBS buffer and treated with lysis solution (50% ethanol in 1% acetic acid containing water). Plate reading has been carried out using Novapath plate reader (Biorad, Hercules, Calif.). Di Cagno et al., 2010. Quorum sensing in sourdough Lactobacillus plantarum DC400: induction of plantaricin A (PlnA) under co-cultivation conditions with other lactic acid bacteria and effect of PlnA on bacterial and Caco-2 cells. Proteomics in press).

Caco-2/TC7 cells [3] = assay: TEER of Caco-2/TC7 cell layer; format: cell-based, Human; settings: for negative effect of IFN-γ on Caco-2/TC7 TEER with added plantaricin A: IFN-γ 1000 U/ml + plantaricin A 2.5 μg/ml
Procedure: For TEER determination Caco-2/TC7 cells have been inoculated (7.5×10^4 cells/ml) in a 24 well plate and a polyethylene filter (0.4 μm pore). Before the treatment, the cells have been incubated for 21 days at 37° C. Treatments with various preparations have been carried out for 18, 24 and 48 hours. Integrity of the cellular layer therefore has been determined by means of TEER determination.

[4] = test system: human NCTC 2544 keratinocyte cell line; format: cell-based; settings: 0.1 μg/ml
Procedure: The used cell line is a human NCTC 2544 keratinocyte cell line (Perry, V. P., Sanford, K. K., Evans, V. J., Hyatt, G. W., Earle, W. R., 1957. Establishment of clones of epithelial cells from human skin. J Natl Cancer Inst. 18 (5): 709-717) cultured in sterile flasks, incubated at 37° C. in humid atmosphere at 5% CO2 in MEM (Minimum Essential Medium) culture medium added with 10% bovine calf serum (FBS), 2 mM L-glutamine, 1% not essential amino acids, in the presence of 1% penicillin and streptomycin. Cells grow in vitro adhering to culture plate surface as a monolayer.
The experiment firstly involves the development of confluent cell monolayer. Successively the cut is carried out and the generated “gap” is observed using microscope as cells gradually moving repair the damage.
NCTC 2544 cells are plated and cultured at 37° C., with 5% CO2 for 24 hours.
After 24 hours complete growth medium is replaced with serum free medium to avoid the serum effect on cell proliferation and cells are incubated for further 24 hours at 37° C., 5% CO2.
After 24 hours the cell monolayer is mechanically damaged by mild 200 μl pipette tip brushing tracking a ˜1 mm wide horizontal line. Then the monolayer is washed and after addition of substances to be tested, the plates are incubated at 37° C., 5% CO2 for 72 hours.
the effect of the substances on cell motility is evaluated using phase contrast reverse microscope, acquiring images at various opportunely selected analysis times.
the damage remedy is determined measuring the clear area between the cut two migration fronts at 0, 4, 8, 12, 24, 48, 72 hours after the cut, using an image processing software (Leica application Suite).
After the cut on the cellular monolayer has been carried out using a 200 μl pipette tip and the cells within the gap between two cut lines completely removed, said cells are treated with synthetic and co-culture deriving Plantaricin at the following concentrations: 0.1-1-10 μg/ml. Also positive and negative controls (connectivine at 100 μg/ml) have been duplicate tested.
Images on the same cut area have been acquired at time 0 and after 4, 8, 12, 24, 48 and 72 hours, to monitor the cell migration in the cut area.

Substance: hyaluronic acid
- gap between the wound margins vs control cells [1]: lesion gap is narrower than for not treated cells

Substance: KSSAYSLQMGATAIKQVKKLFKKWGW [chemically synthesized plantaricin A]
- viability of Caco-2/TC7 cells (Neutral Red) vs DMEM negative control (Caco-2/TC7 cells [2]): Same result
- negative effect of IFN-γ on Caco-2/TC7 viability under simultaneous plantaricin A treatment (Caco-2/TC7 cells [2]): completely eliminated
- negative effect of IFN-γ on Caco-2/TC7 TEER with added plantaricin A (Caco-2/TC7 cells [3]): eliminated also in this case the negative effects
- percentage of migrated cells in comparison to the positive control ([4]; 1st of six time values (4 h)): 158.30%
- percentage of migrated cells in comparison to the positive control ([4]; 2nd of six time values (8 h)): 115.15%
- percentage of migrated cells in comparison to the positive control ([4]; 3rd of six time values (12 h)): 124.32%
- percentage of migrated cells in comparison to the positive control ([4]; 4th of six time values (24 h)): 141.82%
- percentage of migrated cells in comparison to the positive control ([4]; 5th of six time values (48 h)): 141.91%
- percentage of migrated cells in comparison to the positive control ([4]; 6th of six time values (72 h)): 128.51%

Substance: KSSAYSLQMGATAIKQVKKLFKKWGW [purified plantaricin A]
- viability of Caco-2/TC7 cells (Neutral Red) vs DMEM negative control (Caco-2/TC7 cells [2]): remarkably increased
- negative effect of IFN-γ on Caco-2/TC7 viability under simultaneous plantaricin A treatment (Caco-2/TC7 cells [2]): completely eliminated
- TEER values for Caco-2/TC7 cells (Caco-2/TC7 cells [3]; 2.5 μg/ml, 24 and 48 hours, vs DMEM): remarkable increase
- negative effect of IFN-γ on Caco-2/TC7 TEER with added plantaricin A (Caco-2/TC7 cells [3]): eliminated also in this case the negative effects
